Literature values, collected in patent US20250152607A1, “COMPOSITIONS FOR VITAMIN D PRODUCTION” (DR WELLER LIMITED, priority 2022, published 2025).

Experiments:
[1] = powder

CC(C)[C@@H](C)/C=C/[C@@H](C)[C@H]1CC[C@H]2C3=CC=C4C[C@@H](O)CC[C@]4(C)[C@H]3CC[C@]12C [Ergosterol]
skin irritancy [1]: skin irritant

CC1=C(/C=C\C2=CCC[C@]3(C)[C@@H]([C@H](C)CCCC(C)C)CC[C@@H]23)C[C@@H](O)CC1 [pre-vitamin D3]
increase in rate of reaction for vitamin D3 formation from pre-vitamin D3 (by interaction with membrane phospholipids): more than 10 fold

pre-vitamin D
time for isomerization of pre-vitamin D to vitamin D to reach equilibrium (in hexane at 37° C.): up to 10 days
